# From ChEMBL document CHEMBL1137656, “Effects of serum on in vitro susceptibility testing of echinocandins” (Antimicrob Agents Chemother, 2007)
# Numbered stars: 1 amine (or outer) side, 2 acyl side, 3 side chain; on linkers, the order of the positions; unused ones are H or OH. Bridge positions count the residues as written; N and C are the ends. Square brackets hold non-standard residues; d marks the D form. Peptide text beside a SMILES is read from it. * marks the point of attachment. hTyr(3S-OH,4S-OH,3'-OSO3H) = N[C@H](C(=O)O)[C@H](O)[C@@H](O)c1ccc(O)c(OS(=O)(=O)O)c1; pTerphenylCO(4''-OnC5H11) = CCCCCOc1ccc(-c2ccc(-c3ccc(C(=O)*)cc3)cc2)cc1; Orn(4R-OH,5R-OH) = O=C([C@H](C[C@@H](O)[C@@H](O)N[*:3])N[*:1])[*:2]; hTyr(3S-OH,4S-OH) = N[C@H](C(=O)O)[C@H](O)[C@@H](O)c1ccc(O)cc1; Pro(3S-OH,4S-Me) = C[C@H]1CN[C@H](C(=O)O)[C@H]1O; X1 = CCCCCOc1ccc(-c2cc(-c3ccc(C(=O)*)cc3)no2)cc1; Gln(3R-OH) = NC(=O)C[C@@H](O)[C@H](N)C(=O)O; Hyp = O=C(O)[C@@H]1C[C@@H](O)CN1
# Experiments:
# Format in all cases: functional
# Nakaseomyces glabratus [1] = assay: Antifungal activity against Candida glabrata isolate 0022-012 after 24 hrs by CLSI M27-A2 broth microdilution method in presence of RPMI 1640 medium; conditions: isolate 0022-012, 24 h
# Candida parapsilosis [2] = assay: Ratio of MIC50 for Candida parapsilosis ATCC 22019 in presence of 50% human serum to MIC50 for Candida parapsilosis ATCC 22019 in presence of RPMI 1640 medium
# Candida parapsilosis [3] = assay: Antifungal activity against Candida parapsilosis isolate 0036-030 after 24 hrs by CLSI M27-A2 broth microdilution method in presence of RPMI 1640 medium; conditions: Lodderomyces parapsilosis, isolate 0036-030, 24 h
# Candida parapsilosis [4] = assay: Ratio of MIC50 for Candida parapsilosis isolate 0011-013 in presence of 50% human serum to MIC50 for Candida parapsilosis isolate 0011-013 in presence of RPMI 1640 medium
# Clavispora lusitaniae [5] = assay: Antifungal activity against Candida lusitaniae isolate 0013-002 after 24 hrs by CLSI M27-A2 broth microdilution method in presence of 50% human serum; conditions: isolate 0013-002, 24 h
# Clavispora lusitaniae [6] = assay: Antifungal activity against Candida lusitaniae isolate 0013-002 after 24 hrs by CLSI M27-A2 broth microdilution method in presence of RPMI 1640 medium; conditions: isolate 0013-002, 24 h
# Pichia kudriavzevii [7] = assay: Antifungal activity against Candida krusei ATCC 6258 after 24 hrs by CLSI M27-A2 broth microdilution method in presence of RPMI 1640 medium; conditions: ATCC 6258, 24 h
# Pichia kudriavzevii [8] = assay: Antifungal activity against Candida krusei isolate 0001-058 after 24 hrs by CLSI M27-A2 broth microdilution method in presence of 50% human serum; conditions: isolate 0001-058, 24 h
# Clavispora lusitaniae [9] = assay: Antifungal activity against Candida lusitaniae isolate 0015-049 after 24 hrs by CLSI M27-A2 broth microdilution method in presence of RPMI 1640 medium; conditions: isolate 0015-049, 24 h
# Aspergillus terreus = assay: Ratio of MIC50 for Aspergillus terreus isolate 0031-087 in presence of 50% human serum to MIC50 for Aspergillus terreus isolate 0031-087 in presence of RPMI 1640 medium
# Candida parapsilosis [10] = assay: Antifungal activity against Candida parapsilosis isolate 0026-003 after 24 hrs by CLSI M27-A2 broth microdilution method in presence of RPMI 1640 medium; conditions: Lodderomyces parapsilosis, isolate 0026-003, 24 h
# Aspergillus fumigatus [11] = assay: Antifungal activity against Aspergillus fumigatus isolate 0002-0016 after 24 hrs by CLSI M38-A broth microdilution method in presence of RPMI 1640 medium; conditions: isolate 0002-0016, 24 h
# Aspergillus fumigatus [12] = assay: Antifungal activity against Aspergillus fumigatus isolate 0002-020 after 24 hrs by CLSI M38-A broth microdilution method in presence of 50% human serum; conditions: isolate 0002-020, 24 h
# Clavispora lusitaniae [13] = assay: Antifungal activity against Candida lusitaniae isolate 0015-049 after 24 hrs by CLSI M27-A2 broth microdilution method in presence of 50% human serum
# Candida parapsilosis [14] = assay: Antifungal activity against Candida parapsilosis isolate 0014-074 after 24 hrs by CLSI M27-A2 broth microdilution method in presence of RPMI 1640 medium; conditions: Lodderomyces parapsilosis, isolate 0014-074, 24 h
# Aspergillus fumigatus [15] = assay: Antifungal activity against Aspergillus fumigatus isolate 0020-018 after 24 hrs by CLSI M38-A broth microdilution method in presence of 50% human serum; conditions: isolate 0020-018, 24 h
# Pichia kudriavzevii [16] = assay: Antifungal activity against Candida krusei isolate 0001-058 after 24 hrs by CLSI M27-A2 broth microdilution method in presence of RPMI 1640 medium; conditions: isolate 0001-058, 24 h
# Aspergillus flavus [17] = assay: Antifungal activity against Aspergillus flavus isolate 0001-061 after 24 hrs by CLSI M38-A broth microdilution method in presence of RPMI 1640 medium; conditions: isolate 0001-061, 24 h
# Nakaseomyces glabratus [18] = assay: Antifungal activity against Candida glabrata isolate 0022-012 after 24 hrs by CLSI M27-A2 broth microdilution method in presence of 50% human serum; conditions: isolate 0022-012, 24 h
# Candida tropicalis [19] = assay: Ratio of MIC50 for Candida tropicalis isolate 0022-021 in presence of 50% human serum to MIC50 for Candida tropicalis isolate 0022-021 in presence of RPMI 1640 medium
# Candida parapsilosis [20] = assay: Ratio of MIC50 for Candida parapsilosis isolate 0036-030 in presence of 50% human serum to MIC50 for Candida parapsilosis isolate 0036-030 in presence of RPMI 1640 medium
# Candida albicans [21] = assay: Antifungal activity against Candida albicans isolate 0012-025 after 24 hrs by CLSI M27-A2 broth microdilution method in presence of 50% human serum; conditions: isolate 0012-025, 24 h
# Aspergillus flavus [22] = assay: Antifungal activity against Aspergillus flavus isolate 0001-033 after 24 hrs by CLSI M38-A broth microdilution method in presence of 50% human serum; conditions: isolate 0001-033, 24 h
# Aspergillus fumigatus [23] = assay: Ratio of MIC50 for Aspergillus fumigatus isolate 0002-021 in presence of 50% human serum to MIC50 for Aspergillus fumigatus isolate 0002-021 in presence of RPMI 1640 medium
# Pichia kudriavzevii [24] = assay: Ratio of MIC50 for Candida krusei isolate 0013-054 in presence of 50% human serum to MIC50 for Candida krusei isolate 0013-054 in presence of RPMI 1640 medium
# Nakaseomyces glabratus [25] = assay: Antifungal activity against Candida glabrata isolate 0049-038 after 24 hrs by CLSI M27-A2 broth microdilution method in presence of 50% human serum; conditions: isolate 0049-038, 24 h
# Candida tropicalis [26] = assay: Ratio of MIC50 for Candida tropicalis isolate 0050-028 in presence of 50% human serum to MIC50 for Candida tropicalis isolate 0050-028 in presence of RPMI 1640 medium
# Candida parapsilosis [27] = assay: Ratio of MIC50 for Candida parapsilosis isolate 0026-003 in presence of 50% human serum to MIC50 for Candida parapsilosis isolate 0026-003 in presence of RPMI 1640 medium
# Candida albicans [28] = assay: Ratio of MIC50 for Candida albicans isolate 0012-025 in presence of 50% human serum to MIC50 for Candida albicans isolate 0012-025 in presence of RPMI 1640 medium
# Candida parapsilosis [29] = assay: Antifungal activity against Candida parapsilosis isolate 0026-003 after 24 hrs by CLSI M27-A2 broth microdilution method in presence of 50% human serum; conditions: Lodderomyces parapsilosis, isolate 0026-003, 24 h
# Aspergillus niger = assay: Ratio of MIC50 for Aspergillus niger isolate 0001-073 in presence of 50% human serum to MIC50 for Aspergillus niger isolate 0001-073 in presence of RPMI 1640 medium
# Aspergillus flavus [30] = assay: Ratio of MIC50 for Aspergillus flavus isolate 0001-061 in presence of 50% human serum to MIC50 for Aspergillus flavus isolate 0001-061 in presence of RPMI 1640 medium
Structure (SMILES),MIC50 (Nakaseomyces glabratus [1]),Ratio (Candida parapsilosis [2]),MIC50 (Candida parapsilosis [3]),Ratio (Candida parapsilosis [4]),MIC50 (Clavispora lusitaniae [5]),MIC50 (Clavispora lusitaniae [6]),MIC50 (Pichia kudriavzevii [7]),MIC50 (Pichia kudriavzevii [8]),MIC50 (Clavispora lusitaniae [9]),Ratio (Aspergillus terreus),MIC50 (Candida parapsilosis [10]),MIC50 (Aspergillus fumigatus [11]),MIC50 (Aspergillus fumigatus [12]),MIC50 (Clavispora lusitaniae [13]),MIC50 (Candida parapsilosis [14]),MIC50 (Aspergillus fumigatus [15]),MIC50 (Pichia kudriavzevii [16]),MIC50 (Aspergillus flavus [17]),MIC50 (Nakaseomyces glabratus [18]),Ratio (Candida tropicalis [19]),also measured
"CCCCCOc1ccc(-c2ccc(-c3ccc(C(=O)N[C@H]4C[C@@H](O)[C@@H](O)NC(=O)[C@@H]5[C@@H](O)[C@@H](C)CN5C(=O)[C@H]([C@@H](C)O)NC(=O)[C@H]([C@H](O)[C@@H](O)c5ccc(O)cc5)NC(=O)[C@@H]5C[C@@H](O)CN5C(=O)[C@H]([C@@H](C)O)NC4=O)cc3)cc2)cc1 [ANIDULAFUNGIN] ({pTerphenylCO(4''-OnC5H11)}-[Orn(4R-OH,5R-OH)]T[Hyp][hTyr(3S-OH,4S-OH)]T[Pro(3S-OH,4S-Me)]; lactam 1-C)",0.0313 µg/mL,128,1 µg/mL,64,1 µg/mL,0.002 µg/mL,0.125 µg/mL,1 µg/mL,0.125 µg/mL,16,2 µg/mL,2 µg/mL,0.5 µg/mL,1 µg/mL,0.004 µg/mL,128 µg/mL,0.0313 µg/mL,4 µg/mL,1 µg/mL,128,Ratio (Candida parapsilosis [20]): 128; MIC50 (Candida albicans [21]): 0.25 µg/mL; MIC50 (Aspergillus flavus [22]): 128 µg/mL; Ratio (Aspergillus fumigatus [23]): 64000; Ratio (Pichia kudriavzevii [24]): 32; MIC50 (Nakaseomyces glabratus [25]): 2 µg/mL; Ratio (Candida tropicalis [26]): 128; Ratio (Candida parapsilosis [27]): 64; Ratio (Candida albicans [28]): 16; MIC50 (Candida parapsilosis [29]): 128 µg/mL; Ratio (Aspergillus niger): 512; Ratio (Aspergillus flavus [30]): 32
CC[C@H](C)C[C@H](C)CCCCCCCCC(=O)N[C@H]1C[C@@H](O)[C@@H](NCCN)NC(=O)[C@@H]2[C@@H](O)CCN2C(=O)[C@H]([C@H](O)CCN)NC(=O)[C@H]([C@H](O)[C@@H](O)c2ccc(O)cc2)NC(=O)[C@@H]2C[C@@H](O)CN2C(=O)[C@H]([C@@H](C)O)NC1=O [CASPOFUNGIN],0.5 µg/mL,16,1 µg/mL,4,0.25 µg/mL,0.25 µg/mL,0.5 µg/mL,0.5 µg/mL,0.5 µg/mL,1,1 µg/mL,8 µg/mL,128 µg/mL,1 µg/mL,0.25 µg/mL,128 µg/mL,0.5 µg/mL,128 µg/mL,0.5 µg/mL,1,Ratio (Candida parapsilosis [20]): 8; MIC50 (Candida albicans [21]): 0.25 µg/mL; MIC50 (Aspergillus flavus [22]): 128 µg/mL; Ratio (Aspergillus fumigatus [23]): 128; Ratio (Pichia kudriavzevii [24]): 4; MIC50 (Nakaseomyces glabratus [25]): 0.5 µg/mL; Ratio (Candida tropicalis [26]): 4; Ratio (Candida parapsilosis [27]): 8; Ratio (Candida albicans [28]): 1; MIC50 (Candida parapsilosis [29]): 8 µg/mL; Ratio (Aspergillus niger): 512; Ratio (Aspergillus flavus [30]): 1
"CCCCCOc1ccc(-c2cc(-c3ccc(C(=O)N[C@H]4C[C@@H](O)[C@@H](O)NC(=O)[C@@H]5[C@@H](O)[C@@H](C)CN5C(=O)[C@H]([C@H](O)CC(N)=O)NC(=O)[C@H]([C@H](O)[C@@H](O)c5ccc(O)c(OS(=O)(=O)O)c5)NC(=O)[C@@H]5C[C@@H](O)CN5C(=O)[C@H]([C@@H](C)O)NC4=O)cc3)no2)cc1 [MICAFUNGIN] (X1-[Orn(4R-OH,5R-OH)]T[Hyp][hTyr(3S-OH,4S-OH,3'-OSO3H)][Gln(3R-OH)][Pro(3S-OH,4S-Me)]; lactam 1-C)",0.0156 µg/mL,64,0.5 µg/mL,256,1 µg/mL,0.008 µg/mL,0.0625 µg/mL,2 µg/mL,0.0156 µg/mL,128,0.5 µg/mL,0.0313 µg/mL,0.5 µg/mL,4 µg/mL,0.0156 µg/mL,0.5 µg/mL,0.0625 µg/mL,0.125 µg/mL,1 µg/mL,128,Ratio (Candida parapsilosis [20]): 256; MIC50 (Candida albicans [21]): 1 µg/mL; MIC50 (Aspergillus flavus [22]): 128 µg/mL; Ratio (Aspergillus fumigatus [23]): 1024; Ratio (Pichia kudriavzevii [24]): 64; MIC50 (Nakaseomyces glabratus [25]): 1 µg/mL; Ratio (Candida tropicalis [26]): 128; Ratio (Candida parapsilosis [27]): 128; Ratio (Candida albicans [28]): 64; MIC50 (Candida parapsilosis [29]): 64 µg/mL; Ratio (Aspergillus niger): 128; Ratio (Aspergillus flavus [30]): 1024
